This is an account of results in US9988400B2 (Genentech, Inc., priority 2013, dated 2018).

The assay addresses T1, HEK cells stably transfected with tetracycline inducible hNR1 and hNR2A (Homo sapiens, UniProt Q05586+Q12879).
T1 construct: expressed in transfected cells; host or cells: HEK cells, stably transfected, tetracycline/doxycycline inducible
Put plainly: Assay 1: Cell-Based Assay, cytosolic calcium response to positive allosteric modulators (with 30 μM glycine and 300 nM L-glutamate, EC30). To be noted: Table 2; for EC50: cytosolic calcium response, with 30 μM glycine and 300 nM L-glutamate (EC30), — = no plateau was reached; for Max %: responses scaled relative to 100 μM L-glutamate maximal response (100%) and 0 μM L-glutamate (0%). In outline:
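Cells induced 24 h with 7.5 μg mL^−1 doxycycline plus 500 μM (+)-ketamine, loaded 60 min at 37 °C with calcium dye in Mg-free HBSS (1.8 mM Ca, probenecid, 10 μM (+)-ketamine, pH 7.15). Peak RFU over 5 min after compound addition, scaled to 100 μM L-glutamate (100%) and 0 μM (0%); four-parameter Hill fit for EC50, max % if no plateau.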

T1 sequence (Q12879 23-1464, other chains not shown): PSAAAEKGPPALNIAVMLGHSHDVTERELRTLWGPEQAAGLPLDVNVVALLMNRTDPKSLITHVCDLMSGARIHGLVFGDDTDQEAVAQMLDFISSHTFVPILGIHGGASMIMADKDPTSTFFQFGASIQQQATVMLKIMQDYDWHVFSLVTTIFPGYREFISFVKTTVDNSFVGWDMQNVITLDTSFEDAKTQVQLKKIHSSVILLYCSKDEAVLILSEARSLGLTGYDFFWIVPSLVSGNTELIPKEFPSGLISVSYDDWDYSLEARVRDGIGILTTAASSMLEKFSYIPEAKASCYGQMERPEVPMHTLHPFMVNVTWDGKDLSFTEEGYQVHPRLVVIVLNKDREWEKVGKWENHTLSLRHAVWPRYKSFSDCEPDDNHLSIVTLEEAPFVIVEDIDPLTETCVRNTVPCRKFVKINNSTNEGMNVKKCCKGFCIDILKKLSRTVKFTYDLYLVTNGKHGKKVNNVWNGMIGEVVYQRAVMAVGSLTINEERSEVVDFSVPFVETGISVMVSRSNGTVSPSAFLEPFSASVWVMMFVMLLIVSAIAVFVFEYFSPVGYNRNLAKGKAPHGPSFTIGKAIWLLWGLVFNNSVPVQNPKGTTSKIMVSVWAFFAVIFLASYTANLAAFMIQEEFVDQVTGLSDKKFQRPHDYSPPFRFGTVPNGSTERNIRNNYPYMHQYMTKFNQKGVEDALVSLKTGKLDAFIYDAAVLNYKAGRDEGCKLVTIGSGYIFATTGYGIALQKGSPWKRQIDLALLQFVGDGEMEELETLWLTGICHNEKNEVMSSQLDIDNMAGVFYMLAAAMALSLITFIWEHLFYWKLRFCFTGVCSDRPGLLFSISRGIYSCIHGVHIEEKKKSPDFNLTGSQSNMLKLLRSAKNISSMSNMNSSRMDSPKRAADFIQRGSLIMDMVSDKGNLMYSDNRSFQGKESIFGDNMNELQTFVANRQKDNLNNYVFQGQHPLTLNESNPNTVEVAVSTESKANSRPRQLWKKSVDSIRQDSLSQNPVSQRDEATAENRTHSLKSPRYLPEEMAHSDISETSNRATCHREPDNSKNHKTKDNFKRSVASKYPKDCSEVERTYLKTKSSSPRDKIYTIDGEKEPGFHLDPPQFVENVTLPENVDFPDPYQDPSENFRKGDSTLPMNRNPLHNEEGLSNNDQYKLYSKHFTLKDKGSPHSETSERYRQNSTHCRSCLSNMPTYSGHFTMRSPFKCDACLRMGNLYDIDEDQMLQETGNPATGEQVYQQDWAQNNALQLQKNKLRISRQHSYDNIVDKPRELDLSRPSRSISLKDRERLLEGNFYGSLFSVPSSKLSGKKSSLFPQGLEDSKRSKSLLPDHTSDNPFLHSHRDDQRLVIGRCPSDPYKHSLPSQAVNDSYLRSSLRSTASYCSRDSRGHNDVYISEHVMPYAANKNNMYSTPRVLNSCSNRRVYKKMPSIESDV

A word on the EC50: it is the concentration giving half of the maximal effect. On to `Cc1sc2nc(COc3ccc(F)cc3)cc(=O)n2c1-c1ncco1` [Example 4.11, 7-((4-fluorophenoxy)methyl)-2-methyl-3-(oxazol-2-yl)-5H-thiazolo[3,2-a]pyrimidin-5-one], for which the EC50 was found to be 4800 nM and the Max % is 40.8%.

Regarding `Cc1sc2nc(COc3ccc(F)cc3)cc(=O)n2c1-c1ccn[nH]1` [Example 4.15, 7-((4-fluorophenoxy)methyl)-2-methyl-3-(1H-pyrazol-5-yl)-5H-thiazolo[3,2-a]pyrimidin-5-one], the EC50 was 13900 nM and the Max % came out at 50%.

Take `Cc1sc2nc(COc3ccc(F)cc3)cc(=O)n2c1-c1nnc[nH]1` [Example 4.16, 7-((4-fluorophenoxy)methyl)-2-methyl-3-(4H-1,2,4-triazol-3-yl)-5H-thiazolo[3,2-a]pyrimidin-5-one]: the Max % is given as 46.2%.

`Cc1sc2nc(COc3ccc(F)cc3)cc(=O)n2c1C1CC1` [Example 4.17, 3-cyclopropyl-7-[(4-fluorophenoxy)methyl]-2-methyl-thiazolo[3,2-a]pyrimidin-5-one]: the Max % amounted to 40.3%.

On to `Cc1sc2nc(COc3ccc(F)cc3)cc(=O)n2c1C1CC1C` (stereo not drawn) [Example 4.25, 7-(4-Fluorophenoxymethyl)-2-methyl-3-(2-methylcyclopropyl)-5H-[1,3]thiazolo[3,2-a]pyrimidin-5-one], for which the EC50 is 2800 nM and the Max % is listed as 109%.

Regarding `COCC1CC1c1c(C)sc2nc(COc3ccc(F)cc3)cc(=O)n12` (stereo not drawn) [Example 4.27, 7-(4-Fluorophenoxymethyl)-3-[2-(methoxymethyl)cyclopropyl]-2-methyl-5H-[1,3]thiazolo[3,2-a]pyrimidin-5-one], the Max % is 103%.

`Cc1sc2nc(COc3ccc(F)cc3)cc(=O)n2c1C1CC1CF` (stereo not drawn) [Example 4.28, 3-(2-(fluoromethyl)cyclopropyl)-7-((4-fluorophenoxy)methyl)-2-methyl-5H-thiazolo[3,2-a]pyrimidin-5-one]: the EC50 is 3400 nM and the Max % was 89%.

On to `Cc1sc2nc(COc3ccc(F)cc3)cc(=O)n2c1CCCO` [Example 4.30, 7-(4-Fluorophenoxymethyl)-3-(3-hydroxypropyl)-2-methyl-5H-[1,3]thiazolo[3,2-a]pyrimidin-5-one], for which the EC50 worked out at 15500 nM and the Max % worked out at 75.4%.

Consider `COCc1c(C)sc2nc(COc3ccc(F)cc3)cc(=O)n12` [Example 4.31, 7-(4-Fluorophenoxymethyl)-3-(methoxymethyl)-2-methyl-5H-[1,3]thiazolo[3,2-a]pyrimidin-5-one], for which the Max % worked out at 43.3%.

For the molecule `Cc1sc2nc(COc3ccc(F)cc3)cc(=O)n2c1C1(O)COC1` [Example 4.32, 7-((4-fluorophenoxy)methyl)-3-(3-hydroxyoxetan-3-yl)-2-methyl-5H-thiazolo[3,2-a]pyrimidin-5-one], the Max % came out at 50.2%.

Turning to `Cc1sc2nc(COc3ccc(F)cc3)cc(=O)n2c1C(C)CCO` (stereo not drawn) [Example 4.33, 7-(4-Fluorophenoxymethyl)-3-(4-hydroxybutan-2-yl)-2-methyl-5H-[1,3]thiazolo[3,2-a]pyrimidin-5-one], the EC50 is 13800 nM and the Max % came out at 121%.

As to `Cc1sc2nc(COc3ccc(F)cc3)cc(=O)n2c1C1CC1C(C)(C)O` (stereo not drawn) [Example 4.34, 7-(4-Fluorophenoxymethyl)-3-[2-(2-hydroxypropan-2-yl)cyclopropyl]-2-methyl-5H-[1.3]thiazolo[3,2-a]pyrimidin-5-one], the Max % stood at 49.2%.

As for `CCN(Cc1cc(=O)n2c(-c3cncnc3)c(C)sc2n1)c1ccc(F)cc1` [Example 5.1, 7-[(N-ethyl-4-fluoro-anilino)methyl]-2-methyl-3-pyrimidin-5-yl-thiazolo[3,2-a]pyrimidin-5-one], the EC50 came to 560 nM and the Max % is listed as 145.1%.

For `Cc1sc2nc(CN(C)c3ccc(F)cc3)cc(=O)n2c1-c1cncnc1` [Example 5.2, 7-(((4-fluorophenyl)(methyl)amino)methyl)-2-methyl-3-(pyrimidin-5-yl)-5H-thiazolo[3,2-a]pyrimidin-5-one], the EC50 was 5700 nM and the Max % is on record as 148%.

For `Cc1sc2nc(CN(CC(F)(F)F)c3ccc(F)cc3)cc(=O)n2c1-c1cncnc1` [Example 5.3, 7-(((4-fluorophenyl)(2,2,2-trifluoroethyl)amino)methyl)-2-methyl-3-(pyrimidin-5-yl)-5H-thiazolo [3,2-a]pyrimidin-5-one], the half-maximal effective concentration (EC50) was 2200 nM and the Max % is on record as 177%.

With `CCN(Cc1cc(=O)n2c(-c3cncnc3)c(C)sc2n1)c1ccc(F)c(F)c1` [Example 5.4, 7-(((3,4-difluorophenyl)(ethyl)amino)methyl)-2-methyl-3-(pyrimidin-5-yl)-5H-thiazolo[3,2-a]pyrimidin-5-one], the concentration for a half-maximal effect (EC50) worked out at 956 nM and the Max % turned out to be 172%.

Take `CCN(Cc1cc(=O)n2c(-c3cncnc3)c(C)sc2n1)c1cccc(F)c1` [Example 5.5, 7-((ethyl(3-fluorophenyl)amino)methyl)-2-methyl-3-(pyrimidin-5-yl)-5H-thiazolo[3,2-a]pyrimidin-5-one]: the EC50 was 2400 nM and the Max % is recorded as 168%.

Take `Cc1sc2nc(CN(CC(F)F)c3ccc(F)cc3)cc(=O)n2c1-c1cncnc1` [Example 5.6, 7-(((2,2-difluoroethyl)(4-fluorophenyl)amino)methyl)-2-methyl-3-(pyrimidin-5-yl)-5H-thiazolo[3,2-a] pyrimidin-5-one]: the EC50 came out at 766 nM and the Max % is on record as 164%.

For the molecule `CCN(Cc1cc(=O)n2c(-c3nccs3)c(C)sc2n1)c1ccc(F)cc1` [Example 5.8, 7-((ethyl(4-fluorophenyl)amino)methyl)-2-methyl-3-(thiazol-2-yl)-5H-thiazolo[3,2-a]pyrimidin-5-one], the EC50 was determined as 669 nM and the Max % is 156%.

With `CCN(Cc1cc(=O)n2c(-c3cccs3)c(C)sc2n1)c1ccc(F)cc1` [Example 5.9, 7-((ethyl(4-fluorophenyl)amino)methyl)-2-methyl-3-(thiophen-2-yl)-5H-thiazolo[3,2-a]pyrimidin-5-one], the EC50 is 1300 nM and the Max % stood at 143%.

As for `CCN(Cc1cc(=O)n2c(-c3cncnc3)c(C)sc2n1)c1cccc(C#N)c1` [Example 5.10, 3-(ethyl((2-methyl-5-oxo-3-(pyrimidin-5-yl)-5H-thiazolo [3,2-a]pyrimidin-7-yl)methyl)amino)benzonitrile], the EC50 was determined as 18000 nM and the Max % is 133%.

With `CCN(Cc1cc(=O)n2c(-c3cccnc3N)c(C)sc2n1)c1ccc(F)cc1` [Example 5.11, 3-(2-aminopyridin-3-yl)-7-((ethyl(4-fluorophenyl)amino)methyl)-2-methyl-5H-thiazolo[3,2-a]pyrimidin-5-one], the EC50 worked out at 2900 nM and the Max % is recorded as 118%.

Consider `CCN(Cc1cc(=O)n2c(-c3cncnc3)c(C)sc2n1)c1ccccn1` [Example 5.12, 7-((ethyl(pyridine-2-yl)amino)methyl)-2-methyl-3-(pyrimidin-5-yl)-5H-thiazolo[3,2-a]pyrimidin-5-one], for which the Max % amounted to 106%.

Take `Cc1sc2nc(CNc3ccc(F)cc3)cc(=O)n2c1-c1cncnc1` [Example 5.13, 7-((4-fluorophenylamino)methyl)-2-methyl-3-(pyrimidin-5-yl)-5H-thiazolo[3,2-a]pyrimidin-5-one]: the Max % was determined as 87.9%.

Regarding `CCCCc1c(C)sc2nc(CN(CC)c3ccc(F)cc3)cc(=O)n12` [Example 5.14, 3-butyl-7-((ethyl(4-fluorophenyl)amino)methyl)-2-methyl-5H-thiazolo[3,2-a]pyrimidin-5-one], the EC50 was determined as 7500 nM and the Max % was 111%.

With `CCN(Cc1cc(=O)n2c(-c3cncnc3)c(C3CC3)sc2n1)c1ccc(F)cc1` [Example 5.15, 2-cyclopropyl-7-[(N-ethyl-4-fluoro-anilino)methyl]-3-pyrimidin-5-yl-thiazolo[3,2-a]pyrimidin-5-one], the EC50 was determined as 7000 nM and the Max % is 144%.

Turning to `CCc1sc2nc(CN(CC)c3ccc(F)cc3)cc(=O)n2c1-c1cncnc1` [Example 5.16, 2-ethyl-7-((ethyl(4-fluorophenyl)amino)methyl)-3-(pyrimidin-5-yl)-5H-thiazolo[3,2-a]pyrimidin-5-one], the EC50 stood at 2500 nM and the Max % is given as 157%.

Regarding `CCN(Cc1cc(=O)n2c(-c3cscn3)c(C)sc2n1)c1ccc(F)cc1` [Example 5.20, 7-[(N-ethyl-4-fluoro-anilino)methyl]-2-methyl-3-thiazol-4-yl-thiazolo[3,2-a]pyrimidin-5-one], the half-maximal effective concentration (EC50) worked out at 815 nM and the Max % turned out to be 157%.

Turning to `CCN(Cc1cc(=O)n2c(-c3cccnc3)c(C)sc2n1)c1ccc(F)cc1` [Example 5.21, 7-[(N-ethyl-4-fluoro-anilino)methyl]-2-methyl-3-(3-pyridyl)thiazolo[3,2-a]pyrimidin-5-one], the concentration for a half-maximal effect (EC50) came out at 584 nM and the Max % was 141%.

On to `CCN(Cc1cc(=O)n2c(-c3ccccc3)c(C)sc2n1)c1ccc(F)cc1` [Example 5.22, 7-[(N-ethyl-4-fluoro-anilino)methyl]-2-methyl-3-phenyl-thiazolo[3,2-a]pyrimidin-5-one], for which the 50% effective concentration (EC50) worked out at 1600 nM and the Max % is reported as 142%.

Regarding `CCN(Cc1cc(=O)n2c(C)c(C)sc2n1)c1ccc(F)cc1` [Example 5.23, 7-[(N-ethyl-4-fluoro-anilino)methyl]-2,3-dimethyl-thiazolo[3,2-a]pyrimidin-5-one], the EC50 is 2600 nM and the Max % is reported as 135%.
